Here are results for 25 compounds from ChEMBL document CHEMBL3751691, “A Journey around the Medicinal Chemistry of Hepatitis C Virus Inhibitors Targeting NS4B: From Target to Preclinical Drug Candidates” (J Med Chem, 2016).

Data set [1] relates to Hepatitis C virus. Briefly: Antiviral activity against HCV genotype 1b infected in human Huh7 cells assessed as inhibition of viral replication by luciferase reporter-based viral replicon assay. It is filed as functional, organism-based, Hepacivirus hominis. The note with it: Huh-7.
Data set [2] concerns Hepatitis C virus. Put plainly: Antiviral activity against HCV genotype 1b infected in Huh7.5 cells assessed as inhibition of viral replication at 72 hrs by luciferase reporter-based viral replicon assay. The conditions noted are these: Huh7.5, 72 h. It is filed as functional, organism-based, Hepacivirus hominis.
Data set [3] deals with Hepatitis C virus. Put plainly: Antiviral activity against HCV genotype 1b infected in human Huh7 cells assessed as inhibition of viral replication after 72 hrs by ELISA. The conditions noted are these: Huh-7, 72 h. Type of data set: functional, organism-based, Hepacivirus hominis.
Data set [4] can be described thus: Binding affinity to […] by fluorescence assay. More on the design: species or system Hepacivirus hominis.
In data set [5] the test system is Hepatitis C virus. Put plainly: Antiviral activity against HCV genotype 3a infected in human Huh7 cells assessed as inhibition of viral replication by luciferase reporter-based viral replicon assay. It is filed as functional, organism-based, Hepacivirus hominis. The note with it: Huh-7.
The subject of data set [6] is Hepatitis C virus. Put plainly: Antiviral activity against HCV genotype 5a infected in human Huh7 cells assessed as inhibition of viral replication by luciferase reporter-based viral replicon assay. It is filed as functional, organism-based, Hepacivirus hominis. The note with it: Huh-7.
For data set [7], the system named is Hepatitis C virus. Put plainly: Antiviral activity against HCV genotype 4a infected in human Huh7 cells assessed as inhibition of viral replication by luciferase reporter-based viral replicon assay. The note with it: Huh-7. It is filed as functional, organism-based, Hepacivirus hominis.
For data set [8], the system named is Hepatitis C virus. Briefly: Antiviral activity against HCV genotype 2a (JFH-1) infected in human Huh7 cells assessed as inhibition of viral replication by luciferase reporter-based viral replicon assay. It is filed as functional, organism-based, Hepacivirus hominis. The note with it: JFH-1, Huh-7.
Data set [9] is described as follows: Binding affinity to HCV NS4B […] by quantitative PCR analysis. More on the design: species or system Hepacivirus hominis.
Data set [10] in a line: Cytotoxicity against human HuH7 cells by Cell Titer-Glo assay. It is filed as cell-based, Huh-7.
Data set [11] concerns Hepatitis C virus. Briefly: Antiviral activity against HCV genotype 1a (H77) infected in human Huh7 cells assessed as inhibition of viral replication by luciferase reporter-based viral replicon assay. Type of data set: functional, organism-based, Hepacivirus hominis. The conditions noted are these: genotype 1a H77, Huh-7.
Data set [12] has as its system Hepatitis C virus. Briefly: Antiviral activity against HCV genotype 6o infected in human Huh7 cells assessed as inhibition of viral replication by luciferase reporter-based viral replicon assay. Type of data set: functional, organism-based, Hepacivirus hominis. The conditions noted are these: subtype 6, Huh-7.
Data set [13] deals with Hepatitis C virus. Briefly: Antiviral activity against HCV genotype 6a infected in human Huh7 cells assessed as inhibition of viral replication by luciferase reporter-based viral replicon assay. It is filed as functional, organism-based, Hepacivirus hominis. The note with it: Huh-7.
Data set [14] deals with Hepatitis C virus. Put plainly: Antiviral activity against HCV genotype 2b infected in human Huh7 cells assessed as inhibition of viral replication by luciferase reporter-based viral replicon assay. The conditions noted are these: Huh-7. Type of data set: functional, organism-based, Hepacivirus hominis.
Data set [15] concerns Hepatitis C virus. Briefly: Antiviral activity against HCV genotype 1a infected in Huh7.5 cells assessed as inhibition of viral replication after 24 hrs by renilla luciferase reporter-based viral replicon assay. The conditions noted are these: subtype 1a, Huh7.5, 24 h. It is filed as functional, organism-based, Hepacivirus hominis.
Data set [16] relates to Hepatitis C virus. Put plainly: Antiviral activity against HCV genotype 1b infected in human Huh7.5 cells assessed as inhibition of viral replication after 24 hrs by renilla luciferase reporter-based viral replicon assay. It is filed as functional, organism-based, Hepacivirus hominis. The note with it: Huh-7, 24 h.
Data set [17] can be described thus: Cytotoxicity against human Huh7.5 cells infected with HCV genotype 1b after 24 hrs by Cell Titer-Glo assay. It is filed as cell-based, Huh-7.
Data set [18] has as its system Hepatitis C virus. Briefly: Antiviral activity against HCV genotype 1b. Type of data set: functional, organism-based, Hepacivirus hominis.
The subject of data set [19] is Hepatitis C virus. Briefly: Antiviral activity against HCV genotype 2a. Type of data set: functional, organism-based, Hepacivirus hominis.
Data set [20] is described as follows: Cytotoxicity against human HuH7 cells infected with HCV genotype 1b after 48 hrs by WST-1 assay. Type of data set: cell-based, Huh-7.
Data set [21] can be described thus: Cytotoxicity against human HuH7 cells infected with HCV after 72 hrs by crystal violet-based assay. Type of data set: cell-based. The note with it: huh-7, 72 h.
Data set [22] deals with Hepatitis C virus. Briefly: Antiviral activity against HCV genotype 1a infected in Huh7 cells assessed as inhibition of viral replication after 48 hrs by luciferase reporter-based viral replicon assay. The conditions noted are these: subtype 1a, Huh-7, 48 h. Type of data set: functional, organism-based, Hepacivirus hominis.
In data set [23] the test system is Hepatitis C virus. Put plainly: Antiviral activity against HCV infected in human HuH7 cells assessed as inhibition of viral replication after 72 hrs by ELISA-based viral replicon assay. It is filed as functional, organism-based, Hepacivirus hominis. The conditions noted are these: Huh-7, 72 h.
Data set [24] has as its system Hepatitis C virus. Briefly: Antiviral activity against HCV genotype 1b infected in Huh7 cells assessed as inhibition of viral replication after 48 hrs by luciferase reporter-based viral replicon assay. It is filed as functional, organism-based, Hepacivirus hominis. The conditions noted are these: Huh-7, 48 h.
Data set [25] is described as follows: Inhibition of HCV NS3/4A protease. More on the design: species or system Hepacivirus hominis.
Data set [26] is described as follows: Inhibition of HCV GST-tagged recombinant NS3/4A protease expressed in Escherichia coli by microfluidic affinity assay. More on the design: species or system Hepacivirus hominis.
The test system of data set [27] is Hepatitis C virus. Briefly: Antiviral activity against HCV genotype 2a infected in Huh7.5 cells assessed as inhibition of viral replication at 72 hrs by luciferase reporter-based viral replicon assay. The conditions noted are these: Huh7.5, 72 h. It is filed as functional, organism-based, Hepacivirus hominis.

Some results are limits rather than exact numbers.

As to `CC(C)C[C@H]1CN(C(=O)/C=C\c2ccccc2)[C@@H](CC(C)C)C(=O)N1`, the EC90 in data set [1] is above 10000 nM.

As for `CC(C)C[C@H]1CN(C/C=C/c2ccccc2)[C@@H](CC(C)C)C(=O)N1`, in data set [1], the EC90 came to 3300 nM.

For `CC(C)C[C@H]1CN(C(=O)C2CC2)[C@@H](CC(C)C)C(=O)N1`, the EC90 in data set [1] was above 10000 nM.

In the case of `CC(C)C[C@H]1CN(C(=O)c2cccc(-c3ccccc3)c2)[C@@H](CC(C)C)C(=O)N1`, in [1], the EC90 is above 10000 nM.

As for `CC(C)C[C@H]1CN(C(=O)/C=C/c2ccc([N+](=O)[O-])cc2)[C@@H](CC(C)C)C(=O)N1`, the EC90 in data set [1] is above 10000 nM.

Take `CC(C)C[C@H]1CN(C(=O)/C=C/c2ccc(Cl)cc2)[C@@H](CC(C)C)C(=O)N1`: the EC90 in data set [1] amounted to 1600 nM.

As to `CC(C)C[C@H]1CN(C(=O)/C=C/c2ccc(F)cc2)[C@@H](CC(C)C)C(=O)N1`, the EC90 in data set [1] is 1500 nM.

For the compound `CC(C)C[C@H]1CN(C(=O)c2coc(-c3ccccc3)n2)[C@@H](CC(C)C)C(=O)N1`, in data set [1], the EC90 was above 10000 nM.

Take `Clc1ccc(Cn2c(/C=C/C3CCN(CC4CCCCC4)C3)nc3cc(Br)ccc32)cc1` (centres undefined): in [2], the EC50 worked out at 1800 nM.

With `C[C@H]1CCCN1CCCOc1nn(Cc2ccc(Cl)cc2)c2ccc(-c3ccc(N4CCOCC4)nc3)cc12`, the EC50 in data set [2] was determined as 3300 nM.

For the compound `CC[C@H](C)[C@H]1CN(C(=O)c2cc(-c3ccc(F)cc3)on2)[C@@H](CC(C)C)C(=O)N1`, the EC90 in data set [1] was above 10000 nM.

Turning to `CC(=O)c1ccc(NC(=O)c2cc3c(C)nn(-c4ccccc4)c3s2)cc1`, the EC50 in data set [3] stood at 3200 nM. Besides, the Kd in data set [4] is 1000 nM.

`CC(C)c1ccc(NC(=O)c2ccccc2)cc1`: the EC50 in data set [3] turned out to be 2800 nM. Further, in [4], binding was put at a Kd of 6900 nM.

For `O=C(c1ccccc1)N1CCC2(CCCN(c3ncc(-c4ccccc4)c(-c4ccc(Cl)cc4)n3)C2)CC1`, the EC50 in data set [5] was found to be 43.8 nM; in [6] it was 26.6 nM; in data set [1], 20 nM; in data set [7], 200 nM; in data set [8] it was 7600 nM; in data set [11], 800 nM. The EC50 stood at 9500 nM in data set [12], 800 nM in data set [13] and 2200 nM in [14]. The same compound gave a Kd in data set [9] of 45.8 nM. For the same compound, the half-maximal cytotoxic concentration (CC50) in data set [10] was above 43000 nM.

Turning to `Clc1ccc(Cn2nc(OCCCN3CCCC3)c3ccccc32)cc1`, the EC50 in data set [2] came to 3700 nM.

For `O=C(NCc1cccs1)c1nn2c(c1Cl)N[C@H](c1ccco1)C[C@@H]2C(F)(F)F`, the EC50 amounted to 620 nM in data set [15] and 630 nM in [16]. The 50% cytotoxic concentration (CC50) at 24 h in data set [17] is above 100000 nM.

With `COC(=O)c1c(NC(=O)Cc2cccs2)sc(C(=O)Nc2ccc(Cl)cc2)c1C`, the EC50 in data set [3] was 700 nM. In addition, binding in [4] was characterised by a dissociation constant (Kd) of 300 nM.

`O=C(c1ccccc1)N1CCC2(CCCN(c3ncc(Br)c(-c4ccc(Cl)cc4)n3)C2)CC1`: the EC50 in data set [1] turned out to be 172 nM; in [11], 2200 nM. In data set [9], the equilibrium dissociation constant (Kd) came to 52.9 nM. In [10], this compound yielded a CC50 of 38700 nM.

Take `Cc1nccn1-c1nc(-c2ccc(Cl)cc2)cc(C(F)(F)F)n1`: the EC50 in data set [3] was determined as 2200 nM. The same compound had a Kd in [4] of 2100 nM.

For `COc1ccc(Cl)cc1Nc1nc(-c2cccnc2)cs1`, the EC50 in [3] was determined as 1500 nM. In [4], this compound showed a Kd of 1700 nM.

On to `O=C(NCc1cccs1)c1nn2c(c1Cl)NC(c1ccco1)CC2C(F)(F)F` (racemic), for which the EC50 in data set [16] was found to be 1780 nM. Also, the 50% cytotoxic concentration (CC50) at 24 h in data set [17] is above 100000 nM.

Turning to `CC(C)CN(C)c1nc(N)c(C(=O)N=C(N)N)nc1Cl` [5-(N-METHYL-N-ISOBUTYL)AMILORIDE], the figures for the EC50 in data set [18] and in [19] were 2500 nM and 3700 nM, respectively.

Compound `O=C(NCc1cccs1)c1cc2nc(-c3ccco3)cc(C(F)(F)Cl)n2n1` [ANGUIZOLE] registered a CC50 at 48 h in data set [20] above 50000 nM. In data set [21], this compound came in with a CC75 above 100000 nM. Also, the figures for the EC50 in [22], in [23] and in data set [24] were 560 nM, 630 nM and 310 nM, respectively. The same compound showed a Kd in data set [4] of 662 nM.

Turning to `CC(C)(C)NC(=O)N[C@H](C(=O)N1C[C@H]2[C@@H]([C@H]1C(=O)NC(CC1CCC1)C(=O)C(N)=O)C2(C)C)C(C)(C)C` (some centres undefined) [BOCEPREVIR], the Ki in [25] came out at 14 nM.

In the case of `Clc1ccc(Cn2c(CN3CCCC3)nc3ccccc32)cc1` [CLEMIZOLE], the IC50 in data set [26] was found to be 24 nM. In addition, the EC50 in data set [2] was determined as 23000 nM; in data set [27], 8000 nM.
